Test results: ChEMBL document CHEMBL1221226 (Nat Chem Biol, 2009)

Legend:
Glucagon receptor = Glucagon receptor (Homo sapiens, UniProt P47871); test: Agonist activity at GCGR expressed in HEK293 cells assessed as stimulation of cAMP production by luciferase reporter gene assay; type: functional, cell-based
[1] = biological target: Glucagon-like peptide 1 receptor (Homo sapiens, UniProt P43220); test: Agonist activity at GLP1R expressed in HEK293 cells assessed as stimulation of cAMP production by luciferase reporter gene assay; type: functional, cell-based
Chain of Glucagon-like peptide 1 receptor (P43220 whole entry): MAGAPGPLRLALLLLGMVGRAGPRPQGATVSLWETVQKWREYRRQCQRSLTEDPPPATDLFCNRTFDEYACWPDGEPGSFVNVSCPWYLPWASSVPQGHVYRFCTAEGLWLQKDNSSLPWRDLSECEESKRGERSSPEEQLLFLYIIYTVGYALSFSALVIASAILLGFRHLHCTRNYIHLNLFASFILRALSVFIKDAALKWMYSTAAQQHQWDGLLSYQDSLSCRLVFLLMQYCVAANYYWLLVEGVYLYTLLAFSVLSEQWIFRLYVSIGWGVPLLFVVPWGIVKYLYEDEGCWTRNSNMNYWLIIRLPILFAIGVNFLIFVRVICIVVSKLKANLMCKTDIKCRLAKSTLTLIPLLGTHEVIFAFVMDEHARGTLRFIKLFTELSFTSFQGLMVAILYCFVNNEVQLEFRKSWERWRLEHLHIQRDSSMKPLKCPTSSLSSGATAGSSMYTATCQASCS

Chain of Glucagon receptor (P47871 whole entry): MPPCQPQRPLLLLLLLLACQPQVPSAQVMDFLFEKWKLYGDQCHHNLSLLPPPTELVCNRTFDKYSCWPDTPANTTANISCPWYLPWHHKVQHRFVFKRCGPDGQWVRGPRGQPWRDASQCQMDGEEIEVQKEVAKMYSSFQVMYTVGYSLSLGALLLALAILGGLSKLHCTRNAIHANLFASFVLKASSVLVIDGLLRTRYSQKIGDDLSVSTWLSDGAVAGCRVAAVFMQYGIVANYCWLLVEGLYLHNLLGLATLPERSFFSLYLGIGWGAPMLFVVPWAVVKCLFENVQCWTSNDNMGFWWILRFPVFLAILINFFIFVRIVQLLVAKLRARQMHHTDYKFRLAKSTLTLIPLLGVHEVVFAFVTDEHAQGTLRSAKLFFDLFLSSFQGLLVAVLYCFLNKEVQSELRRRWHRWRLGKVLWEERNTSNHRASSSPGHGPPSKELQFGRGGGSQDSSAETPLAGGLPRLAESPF

| SMILES | EC50 (Glucagon receptor) [nM] | EC50 [1] [nM] |
| --- | --- | --- |
| CSCC[C@H](NC(=O)[C@H](CC(C)C)NC(=O)[C@H](Cc1c[nH]c2ccccc12)NC(=O)[C@H](CCC(N)=O)NC(=O)[C@@H](NC(=O)[C@H](Cc1ccccc1)NC(=O)[C@H](CC(=O)O)NC(=O)[C@H](CCCCN)NC(=O)[C@H](C)NC(=O)[C@H](C)NC(=O)[C@H](CCCNC(=N)N)NC(=O)[C@H](CCC(=O)O)NC(=O)[C@H](CC(=O)O)NC(=O)[C@H](CC(C)C)NC(=O)[C@H](Cc1ccc(O)cc1)NC(=O)[C@H](CCCCN)NC(=O)[C@H](CO)NC(=O)[C@H](Cc1ccc(O)cc1)NC(=O)[C@H](CC(=O)O)NC(=O)[C@H](CO)NC(=O)[C@@H](NC(=O)[C@H](Cc1ccccc1)NC(=O)[C@@H](NC(=O)CNC(=O)[C@H](CCC(N)=O)NC(=O)[C@H](CO)N[C@@H](Cc1cnc[nH]1)C(=O)O)[C@@H](C)O)[C@@H](C)O)C(C)C)C(=O)N[C@@H](CC(N)=O)C(=O)N[C@H](C(N)=O)[C@@H](C)O | 0.087 | 0.028 |
| CSCC[C@H](NC(=O)[C@H](CC(C)C)NC(=O)[C@H](Cc1c[nH]c2ccccc12)NC(=O)[C@H](CCC(N)=O)NC(=O)[C@@H](NC(=O)[C@H](Cc1ccccc1)NC(=O)[C@H](CCC(=O)O)NC(=O)[C@H](CCCCN)NC(=O)[C@H](C)NC(=O)[C@H](CCCNC(=N)N)NC(=O)[C@H](CCCNC(=N)N)NC(=O)[C@H](CCC(=O)O)NC(=O)[C@H](CC(=O)O)NC(=O)[C@H](CC(C)C)NC(=O)[C@H](Cc1ccc(O)cc1)NC(=O)[C@H](CCCCN)NC(=O)[C@H](CO)NC(=O)[C@H](Cc1ccc(O)cc1)NC(=O)[C@H](CC(=O)O)NC(=O)[C@H](CO)NC(=O)[C@@H](NC(=O)[C@H](Cc1ccccc1)NC(=O)[C@@H](NC(=O)CNC(=O)[C@H](CCC(N)=O)NC(=O)[C@H](CO)N[C@@H](Cc1cnc[nH]1)C(=O)O)[C@@H](C)O)[C@@H](C)O)C(C)C)C(=O)N[C@@H](CC(N)=O)C(=O)N[C@H](C(N)=O)[C@@H](C)O | 0.068 | 0.075 |
| CC[C@H](C)[C@H](NC(=O)[C@H](Cc1ccccc1)NC(=O)[C@H](CC(=O)O)NC(=O)[C@H](CCCCN)NC(=O)[C@H](C)NC(=O)[C@H](CCCNC(=N)N)NC(=O)[C@H](CCCNC(=N)N)NC(=O)[C@H](CCC(=O)O)NC(=O)[C@H](CC(=O)O)NC(=O)[C@H](CC(C)C)NC(=O)[C@H](Cc1ccc(O)cc1)NC(=O)[C@H](CCCCN)NC(=O)[C@H](CO)NC(=O)[C@H](Cc1ccc(O)cc1)NC(=O)[C@H](CC(=O)O)NC(=O)[C@H](CO)NC(=O)[C@@H](NC(=O)[C@H](Cc1ccccc1)NC(=O)[C@@H](NC(=O)CNC(=O)[C@H](CCC(N)=O)NC(=O)[C@H](CO)N[C@@H](Cc1cnc[nH]1)C(=O)O)[C@@H](C)O)[C@@H](C)O)C(=O)N[C@@H](CCC(N)=O)C(=O)N[C@@H](Cc1c[nH]c2ccccc12)C(=O)N[C@@H](CC(C)C)C(=O)N[C@@H](CCSC)C(=O)N[C@@H](CC(N)=O)C(=O)N[C@H](C(=O)N[C@H](C(N)=O)[C@@H](C)O)[C@@H](C)O | 0.073 | 0.068 |
| CSCC[C@H](NC(=O)[C@H](CC(C)C)NC(=O)[C@H](Cc1c[nH]c2ccccc12)NC(=O)[C@H](CCC(N)=O)NC(=O)[C@@H](NC(=O)[C@H](Cc1ccccc1)NC(=O)[C@H](CC(=O)O)NC(=O)[C@H](CCC(N)=O)NC(=O)[C@H](C)NC(=O)[C@H](CCCNC(=N)N)NC(=O)[C@H](CCCNC(=N)N)NC(=O)[C@H](CCC(=O)O)NC(=O)[C@H](CC(=O)O)NC(=O)[C@H](CC(C)C)NC(=O)[C@H](Cc1ccc(O)cc1)NC(=O)[C@H](CCCCN)NC(=O)[C@H](CO)NC(=O)[C@H](Cc1ccc(O)cc1)NC(=O)[C@H](CC(=O)O)NC(=O)[C@H](CO)NC(=O)[C@@H](NC(=O)[C@H](Cc1ccccc1)NC(=O)[C@@H](NC(=O)CNC(=O)[C@H](CCC(=O)O)NC(=O)[C@H](CO)N[C@@H](Cc1cnc[nH]1)C(=O)O)[C@@H](C)O)[C@@H](C)O)C(C)C)C(=O)N[C@@H](CC(N)=O)C(=O)N[C@H](C(N)=O)[C@@H](C)O | 3.7 | 0.11 |
| CC[C@H](C)[C@H](NC(=O)[C@H](Cc1ccccc1)NC(=O)[C@H](CCC(=O)O)NC(=O)[C@H](CCCCN)NC(=O)[C@H](C)NC(=O)[C@H](C)NC(=O)[C@H](CCC(N)=O)NC(=O)[C@H](CCC(=O)O)NC(=O)[C@H](CC(=O)O)NC(=O)[C@H](CC(C)C)NC(=O)[C@H](Cc1ccc(O)cc1)NC(=O)[C@H](CCCCN)NC(=O)[C@H](CO)NC(=O)[C@H](Cc1ccc(O)cc1)NC(=O)[C@H](CC(=O)O)NC(=O)[C@H](CO)NC(=O)[C@@H](NC(=O)[C@H](Cc1ccccc1)NC(=O)[C@@H](NC(=O)CNC(=O)[C@H](CCC(=O)O)NC(=O)[C@H](CO)N[C@@H](Cc1cnc[nH]1)C(=O)O)[C@@H](C)O)[C@@H](C)O)C(=O)N[C@@H](C)C(=O)N[C@@H](Cc1c[nH]c2ccccc12)C(=O)N[C@@H](CC(C)C)C(=O)N[C@@H](CCSC)C(=O)N[C@@H](CC(N)=O)C(=O)N[C@H](C(=O)O)[C@@H](C)O | 2.4 | 0.028 |
| CC[C@H](C)[C@H](NC(=O)[C@H](Cc1ccccc1)NC(=O)[C@H](CCC(=O)O)NC(=O)[C@H](CCCCN)NC(=O)[C@H](C)NC(=O)[C@H](C)NC(=O)[C@H](CCC(=O)O)NC(=O)[C@H](CCC(=O)O)NC(=O)[C@H](CCC(=O)O)NC(=O)[C@H](CC(C)C)NC(=O)[C@H](Cc1ccc(O)cc1)NC(=O)[C@H](CO)NC(=O)[C@H](CO)NC(=O)[C@@H](NC(=O)[C@H](CC(=O)O)NC(=O)[C@H](CO)NC(=O)[C@@H](NC(=O)[C@H](Cc1ccccc1)NC(=O)[C@@H](NC(=O)CNC(=O)[C@H](CCC(=O)O)NC(=O)[C@H](C)N[C@@H](Cc1cnc[nH]1)C(=O)O)[C@@H](C)O)[C@@H](C)O)C(C)C)C(=O)N[C@@H](C)C(=O)N[C@@H](Cc1c[nH]c2ccccc12)C(=O)N[C@@H](CC(C)C)C(=O)N[C@H](C(=O)N[C@@H](CCCCN)C(=O)NCC(=O)N[C@@H](CCN=C(N)N)C(N)=O)C(C)C | > 1000 | 0.011 |

Continued, values first:

| EC50 (Glucagon receptor) [nM] | EC50 [1] [nM] | SMILES |
| --- | --- | --- |
| 0.077 | 0.071 | CSCC[C@H](NC(=O)[C@H](CC(C)C)NC(=O)[C@H](Cc1c[nH]c2ccccc12)NC(=O)[C@H](CCC(N)=O)NC(=O)[C@@H](NC(=O)[C@H](Cc1ccccc1)NC(=O)[C@H](CC(=O)O)NC(=O)[C@H](CCCCN)NC(=O)[C@H](C)NC(=O)[C@H](CCCN=C(N)N)NC(=O)[C@H](CCCN=C(N)N)NC(=O)[C@H](CCC(=O)O)NC(=O)[C@H](CC(=O)O)NC(=O)[C@H](CC(C)C)NC(=O)[C@H](Cc1ccc(O)cc1)NC(=O)[C@H](CCCCN)NC(=O)[C@H](CO)NC(=O)[C@H](Cc1ccc(O)cc1)NC(=O)[C@H](CC(=O)O)NC(=O)[C@H](CO)NC(=O)[C@@H](NC(=O)[C@H](Cc1ccccc1)NC(=O)[C@@H](NC(=O)CNC(=O)[C@H](CCC(N)=O)NC(=O)[C@H](CO)N[C@@H](Cc1cnc[nH]1)C(=O)O)[C@@H](C)O)[C@@H](C)O)C(C)C)C(=O)N[C@@H](CC(N)=O)C(=O)N[C@H](C(N)=O)[C@@H](C)O |
| 0.048 | 0.075 | CSCC[C@H](NC(=O)[C@H](CC(C)C)NC(=O)[C@H](Cc1c[nH]c2ccccc12)NC(=O)[C@H](CCC(N)=O)NC(=O)[C@@H](NC(=O)[C@H](Cc1ccccc1)NC(=O)[C@H](CC(=O)O)NC(=O)[C@H](CCCCN)NC(=O)[C@H](C)NC(=O)[C@H](CCCN=C(N)N)NC(=O)[C@H](CCC(N)=O)NC(=O)[C@H](CCC(=O)O)NC(=O)[C@H](CC(=O)O)NC(=O)[C@H](CC(C)C)NC(=O)[C@H](Cc1ccc(O)cc1)NC(=O)[C@H](CCCCN)NC(=O)[C@H](CO)NC(=O)[C@H](Cc1ccc(O)cc1)NC(=O)[C@H](CC(=O)O)NC(=O)[C@H](CO)NC(=O)[C@@H](NC(=O)[C@H](Cc1ccccc1)NC(=O)[C@@H](NC(=O)CNC(=O)[C@H](CCC(N)=O)NC(=O)[C@H](CO)N[C@@H](Cc1cnc[nH]1)C(=O)O)[C@@H](C)O)[C@@H](C)O)C(C)C)C(=O)N[C@@H](CC(N)=O)C(=O)N[C@H](C(N)=O)[C@@H](C)O |
| 0.08 | 0.087 | CSCC[C@H](NC(=O)[C@H](CC(C)C)NC(=O)[C@H](Cc1c[nH]c2ccccc12)NC(=O)[C@H](C)NC(=O)[C@@H](NC(=O)[C@H](Cc1ccccc1)NC(=O)[C@H](CC(=O)O)NC(=O)[C@H](CCCCN)NC(=O)[C@H](C)NC(=O)[C@H](CCCN=C(N)N)NC(=O)[C@H](CCCN=C(N)N)NC(=O)[C@H](CCC(=O)O)NC(=O)[C@H](CC(=O)O)NC(=O)[C@H](CC(C)C)NC(=O)[C@H](Cc1ccc(O)cc1)NC(=O)[C@H](CCCCN)NC(=O)[C@H](CO)NC(=O)[C@H](Cc1ccc(O)cc1)NC(=O)[C@H](CC(=O)O)NC(=O)[C@H](CO)NC(=O)[C@@H](NC(=O)[C@H](Cc1ccccc1)NC(=O)[C@@H](NC(=O)CNC(=O)[C@H](CCC(N)=O)NC(=O)[C@H](CO)N[C@@H](Cc1cnc[nH]1)C(=O)O)[C@@H](C)O)[C@@H](C)O)C(C)C)C(=O)N[C@@H](CC(N)=O)C(=O)N[C@H](C(N)=O)[C@@H](C)O |
| 0.12 | 0.13 | CSCC[C@H](NC(=O)[C@H](CC(C)C)NC(=O)[C@H](Cc1c[nH]c2ccccc12)NC(=O)[C@H](CCC(N)=O)NC(=O)[C@@H](NC(=O)[C@H](Cc1ccccc1)NC(=O)[C@H](CC(=O)O)NC(=O)[C@H](CCCCN)NC(=O)[C@H](C)NC(=O)[C@H](CCCN=C(N)N)NC(=O)[C@H](CCCN=C(N)N)NC(=O)[C@H](CO)NC(=O)[C@H](CC(=O)O)NC(=O)[C@H](CC(C)C)NC(=O)[C@H](Cc1ccc(O)cc1)NC(=O)[C@H](CCCCN)NC(=O)[C@H](CO)NC(=O)[C@H](Cc1ccc(O)cc1)NC(=O)[C@H](CC(=O)O)NC(=O)[C@H](CO)NC(=O)[C@@H](NC(=O)[C@H](Cc1ccccc1)NC(=O)[C@@H](NC(=O)CNC(=O)[C@H](CCC(N)=O)NC(=O)[C@H](CO)N[C@@H](Cc1cnc[nH]1)C(=O)O)[C@@H](C)O)[C@@H](C)O)C(C)C)C(=O)N[C@@H](CC(N)=O)C(=O)N[C@H](C(N)=O)[C@@H](C)O |
